Data from patent publication US20080025986A1, “Methods of Treating Tnf-Mediated Disorders” (priority 2003, published 2008).

What was measured:
Assay type in all cases: cell-based
AP-1 = AP-1 activation
IRS1 = experiment: Insulin signaling in cells stimulated with insulin in the presence or absence of TNF-α
Procedure: (§1) To explore the possibility that Pirfenidone could be used to treat NASH, the effects of pirfenidone on cells stimulated with Insulin in the presence or absence of TNF-α were examined.
(§2) When cells were treated with Pirfenidone, TNF-α mediated Insulin resistance was ameliorated. […] More specifically, Pirfenidone decreased ERK activation by 7-fold, p38 MAPK by 2-fold and RAF activation by 2-fold (P<0.01 for all observations). In addition, Pirfenidone decreased the TNF-α mediated phosphorylation of the transcription activation factor CREB by 2-fold (P<0.01). […] In addition, Pirfenidone increased insulin-induced phosphorylation of IRS1. […] The results are depicted in FIGS. 3 and 4. FIG. 3 depicts inhibition of MAPK by pirfenidone. FIG. 4 depicts enhancement of insulin signaling by pirfenidone.

ATF2 = experiment: Phosphorylation of JNK-phosphorylated transcription factor ATF2; details: FIG. 12
Source text: (§3) While phosphorylation of CREB is diminished due to decreased activity of p38 in the presence of pirfenidone, phosphorylation of the JNK-phosphorylated transcription factor ATF2 is potentiated in the presence of pirfenidone. FIG. 12 depicts pirfenidone potentiation of ATF2. Thus, pirfenidone potentiates TNF-induced activation of the JNK kinase pathway.

CREB = experiment: TNF-α mediated phosphorylation/activation of transcription factor CREB
Procedure: as §1, §2
(§4) FIG. 5 depicts various downstream signaling events that are triggered by TNF binding to a TNF receptor. TNF-mediated activation of various serine-threonine kinases are differentially affected by pirfenidone. Therefore, activation of transcription factors downstream of a given kinase will be differentially affected by pirfenidone. FIG. 6 depicts pirfenidone inhibition of TNF-induced ERK activation. FIG. 7 depicts pirfenidone inhibition of TNF-induced p38 MAPK activation. FIG. 8 depicts pirfenidone inhibition of TNF-induced activation of the transcription factor CREB. […]

p38 MAPK = experiment: Western blot, TNF-induced p38 MAPK activation in cells; details: TNF cascade, P<0.01
Procedure: as §1, §2, §4

JNK = experiment: TNF-induced JNK activation; details: FIG. 11
Source text: (§5) FIG. 5 depicts various downstream signaling events that are triggered by TNF binding to a TNF receptor. TNF-mediated activation of various serine-threonine kinases are differentially affected by pirfenidone. Therefore, activation of transcription factors downstream of a given kinase will be differentially affected by pirfenidone. FIG. 6 depicts pirfenidone inhibition of TNF-induced ERK activation. FIG. 7 depicts pirfenidone inhibition of TNF-induced p38 MAPK activation. FIG. 8 depicts pirfenidone inhibition of TNF-induced activation of the transcription factor CREB. FIG. 9 depicts pirfenidone inhibition of TNF-induced activation of RAF kinase. FIG. 10 depicts pirfenidone inhibition of TNF-induced activation of AKT. FIG. 11 depicts pirfenidone potentiation of TNF-induced JNK activation.
as §3

AKT = experiment: TNF-induced activation of AKT; details: FIG. 10
Source text: as §5

ERK = experiment: Western blot, TNF-induced ERK activation in cells; details: TNF cascade, P<0.01
Procedure: as §1, §2, §4

RAF = experiment: Western blot, TNF-induced RAF kinase activation in cells; details: TNF cascade, P<0.01
Procedure: as §1, §2, §4

Cc1ccc(=O)n(-c2ccccc2)c1 [Pirfenidone, 5-methyl-1-phenyl-2-(1H)-pyridone]
effect on AP-1 activation (AP-1): potentiates | effect on TNF-α mediated insulin resistance (IRS1; cells treated with TNF-α): ameliorated | effect on TNF-α-mediated inhibition of insulin-induced IRS1 tyrosine phosphorylation (IRS1; insulin plus TNF-α): blocks | effect on insulin-induced phosphorylation of IRS1 (IRS1; insulin stimulation): increased | effect on phosphorylation of ATF2 (ATF2): potentiated | decrease of TNF-α mediated phosphorylation of CREB (CREB; P<0.01): 2 fold | upper limit of inhibition of CREB activation (CREB; at maximal pirfenidone concentrations): ≤ 75% | decrease of p38 MAPK activation (p38 MAPK): 2 fold | effect on TNF-induced JNK activation (JNK): potentiation | effect on TNF-induced activation of AKT (AKT): inhibition | decrease of ERK activation (ERK): 7 fold | decrease of RAF activation (RAF): 2 fold
